Converted amounts (≈) assume the structure as drawn.

This is an account of results in ChEMBL document CHEMBL5550135, “Targeting the cysteine biosynthesis pathway in microorganisms: Mechanism, structure, and drug discovery” (Eur J Med Chem, 2024).

In one assay the test system is Escherichia coli. The experiment in a line: Antibacterial activity against Escherichia coli assessed as reduction in bacterial growth by broth microdilution method. It is filed as functional. (Dilution methods test growth across graded concentrations, often in twofold steps.)
Assay [1] has as its system Mycobacterium tuberculosis. The experiment in a line: Antimycobacterial activity against Mycobacterium tuberculosis H37Rv assessed as reduction in bacterial growth incubated for 7 days by resazurin based assay. It is filed as functional. As to conditions: 168 h, time 7 day. On the technique in general: The colour change of resazurin is a common sign of viable cells or microbes.

Assay [2] is described as follows: Binding affinity to Salmonella Typhimurium ATCC 14028 O-acetylserine sulfhydrylase A assessed as dissociation constant. Details: species or system Salmonella enterica subsp. enterica serovar Typhimurium.
Assay [3] in a line: Binding affinity to Salmonella Typhimurium ATCC 14028 O-acetylserine sulfhydrylase B assessed as dissociation constant. Details: species or system Salmonella enterica subsp. enterica serovar Typhimurium.
A short description of assay [4]: Inhibition of Salmonella enterica Serine acetyltransferase by spectrophotometric analysis.
Assay [5] is described as follows: Inhibition of Methicillin-resistant Staphylococcus aureus ATCC 33591 Serine acetyltransferase.
A further assay relates to Staphylococcus aureus. The experiment in a line: Antibacterial activity against methicillin-resistant Staphylococcus aureus ATCC 33591 assessed as reduction in bacterial growth incubated for 18 hrs by broth microdilution method. It is filed as functional.
Assay [6] has as its target O-acetylserine sulfhydrylase (Mycobacterium tuberculosis, UniProt P9WP55). The assay can be described thus: Inhibition of Mycobacterium tuberculosis ATCC 25618 Cysteine synthase A.
Assay [7] is described as follows: Inhibition of Entamoeba histolytica O-acetylserine sulfhydrylase.
A short description of assay [8]: Inhibition of Klebsiella pneumoniae Serine acetyltransferase.

Consider `O=C(CSc1c[nH]nn1)Nc1ccccc1F`, for which the MIC in the assay with Escherichia coli was 1.6 µg/mL (≈ 6.34 µM).
In the case of `Cc1ccc(S(=O)(=O)n2nc(-c3ccccc3)c3c(N)ncnc32)cc1`, the MIC with Escherichia coli came to 0.57 µg/mL (≈ 1.56 µM).
Take `O=C1N=C2C(C(=O)N=C3SC([N+](=O)[O-])=CN32)C(c2ccccc2C(F)(F)F)N1` (stereo unspecified): the minimal inhibitory concentration (MIC) in assay [1] was 7.6 µM (≈ 3.13 µg/mL).
In the case of `Cc1ccc(C[C@@]2(C(=O)O)C[C@H]2c2ccccc2)cc1`, the Kd in assay [2] was found to be 20 nM; in [3], 490 nM.
`Cc1ccc(Nc2nc(-c3cc(C(=O)O)no3)cs2)cc1` had an IC50 in assay [4] of 110000 nM.
`CC1=C2[C@@H](OC1=O)C(=O)[C@H]1[C@]3(C)CCCC(C)(C)[C@H]3CC[C@@]1(O)[C@H]2O` displayed an IC50 in [5] of 71800 nM. Also, the MIC in the assay with Staphylococcus aureus was found to be 12.5 µg/mL (≈ 35.9 µM).
Consider `CC1(C)CCC[C@]2(C)[C@@H]1CC[C@]1(O)[C@H](O)C3=C(CO)C(=O)OC3=C[C@@H]21`, for which the IC50 in assay [5] worked out at 71800 nM. In the assay with Staphylococcus aureus, the MIC turned out to be 25 µg/mL (≈ 71.7 µM).
On to `C[C@@H]1O[C@@H](O[C@@H]2C[C@H](c3ccc4c(c3O)C(=O)C3=C(C4=O)[C@@]4(O[C@H]5CC[C@H](O)[C@H](C)O5)C(=O)C[C@](C)(O)C[C@@]4(O)C=C3)O[C@H](C)[C@H]2O)CC[C@@H]1O[C@H]1C[C@@H](O)[C@H](O)[C@@H](C)O1`, for which the concentration for half-maximal inhibition (IC50) worked out at 630 nM in [6] and 310 nM in assay [7].
For `Cc1ccc(C[C@@]2(C(=O)O)C[C@H]2c2cccc(-c3cc(O)cc(F)c3)c2)cc1`, the dissociation constant Kd in assay [2] was 30 nM; in assay [3] it was 610 nM.
Molecule `Cc1cc(C)cc(Nc2nc(-c3cc(C(=O)O)no3)co2)c1` registered an IC50 in [4] of 4240 nM.
`O=c1c(O)c(-c2ccc(O)c(O)c2)oc2cc(O)cc(O)c12` [QUERCETIN]: the IC50 in assay [8] is 3700 nM.

The MIC is the smallest concentration in the dilution series that meets the test's criterion for growth inhibition. As usually defined, the Kd is a measure of binding affinity in units of concentration. Usually IC50 stands for the point on the concentration scale where inhibition reaches its midpoint. Lower therefore signals higher potency.
